Measured values published in ChEMBL document CHEMBL1141117, “Unambiguous synthesis and prophylactic antimalarial activities of imidazolidinedione derivatives” (J Med Chem, 2005).
In brackets after ≈: the same amount, converted by molar mass.

Assays:
Plasmodium yoelii [1] = experiment: Prophylactic activity in infected mouse at 160 mg/kg peroral administration, expressed as no of organisms survived; Total organisms= 5; conditions: route oral
Plasmodium yoelii [2] = experiment: Prophylactic activity in infected mouse at 40 mg/kg peroral administration, expressed as no of organisms survived; Total organisms= 5; conditions: route oral
Plasmodium yoelii [3] = experiment: In vitro antimalarial activity dosed at 10 mg/kg against exoerythrocytic Plasmodium yoelii in mice (Mus musculus) hepatocytes; conditions: Hepatocyte
Plasmodium yoelii [4] = experiment: In vitro antimalarial activity dosed at 1 mg/kg against exoerythrocytic Plasmodium yoelii in mice (Mus musculus) hepatocytes; conditions: Hepatocyte
Plasmodium yoelii [5] = experiment: Prophylactic activity in infected mouse at 10 mg/kg peroral administration, expressed as no of organisms survived; Total organisms= 5; conditions: route oral
Plasmodium yoelii [6] = experiment: Prophylactic activity in infected mouse at 2.5 mg/kg peroral administration, expressed as no of organisms survived; Total organisms= 5; conditions: route oral
Plasmodium yoelii [7] = experiment: Prophylactic activity in infected mouse at 5 mg/kg peroral administration, expressed as no of organisms survived; Total organisms= 5; conditions: route oral
Plasmodium yoelii [8] = experiment: Prophylactic activity in infected mouse at 1.23 mg/kg peroral administration, expressed as no of organisms survived; Total organisms= 5; conditions: route oral
Plasmodium yoelii [9] = experiment: Prophylactic activity in infected mouse at 160 mg/kg peroral administration, expressed as no of organisms survived; Not dosed
Plasmodium falciparum [10] = experiment: (§1) In vitro antimalarial activity for Plasmodium falciparum TM91C235; assay type: functional, organism-based
Plasmodium falciparum [11] = experiment: (§2) In vitro antimalarial activity for Plasmodium falciparum W2; assay type: functional
Plasmodium falciparum [12] = experiment: as §2; assay type: functional, organism-based
Plasmodium falciparum [13] = experiment: (§3) In vitro antimalarial activity for Plasmodium falciparum D6; assay type: functional
Plasmodium falciparum [14] = experiment: as §3; assay type: functional, organism-based
Plasmodium falciparum [15] = experiment: as §1; assay type: functional
Plasmodium yoelii [16] = experiment: Prophylactic activity in infected mouse at 80 mg/kg peroral administration, expressed as no of organisms survived; Total organisms= 5; conditions: route oral
Plasmodium yoelii [17] = experiment: Prophylactic activity in infected mouse at 20 mg/kg peroral administration, expressed as no of organisms survived; Total organisms= 5; conditions: route oral
Plasmodium yoelii [18] = experiment: Prophylactic activity in infected mouse at 160 mg/kg peroral administration, expressed as no of organisms survived; Toxicity death
Plasmodium yoelii [19] = experiment: Prophylactic activity in infected mouse at 1.25 mg/kg peroral administration, expressed as no of organisms survived; Total organisms= 5; conditions: route oral

Row | Structure (SMILES) | Activity (Plasmodium yoelii [1]) | Activity (Plasmodium yoelii [2]) | inhibition in vivo at 10 mg/kg (Plasmodium yoelii [3]) [%] | inhibition in vivo at 1 mg/kg (Plasmodium yoelii [4]) [%] | Activity (Plasmodium yoelii [5]) | Activity (Plasmodium yoelii [6]) | Activity (Plasmodium yoelii [7]) | also measured
1 | CC(C)N1C(=O)C(=O)N=C1N/C(=N\C(=O)OCc1ccccc1)Nc1ccc(Cl)c(Cl)c1 | 0 | 0 | 43 | 25 |  |  |  | 
2 | CC(C)/N=C(/NC(=O)OCc1ccccc1)NC1=NC(=O)C(=O)N1c1ccc(Cl)c(Cl)c1 | 3 | 2 | 87 | 6.7 | 2 | 0 | 3 | 
3 | CC(C)COC(=O)N/C(=N/C(C)C)NC1=NC(=O)C(=O)N1c1ccc(Cl)c(Cl)c1 | 5 | 5 |  |  | 5 | 1 | 5 | Activity (Plasmodium yoelii [8]): 0
4 | COc1cc(NC(C)CCCN)c2ncccc2c1 (centres undefined) [PRIMAQUINE] | 5 | 2 |  |  | 0 |  |  | 
5 | C=CCCOC(=O)N/C(=N/C(C)C)NC1=NC(=O)C(=O)N1c1ccc(Cl)c(Cl)c1 |  |  |  |  |  |  |  | Activity (Plasmodium yoelii [9]): Not Dosed
6 | CC(C)N1C(=O)C(=O)N=C1NC(=N)Nc1ccc(Cl)c(Cl)c1 |  |  | 91 | 50 |  |  |  | IC50 (Plasmodium falciparum [10]): 2.59 mg/L (≈ 7.57 µM); IC90 (Plasmodium falciparum [11]): 10.9 mg/L (≈ 31.8 µM); IC50 (Plasmodium falciparum [12]): 2.66 mg/L (≈ 7.79 µM); IC90 (Plasmodium falciparum [13]): 12.1 mg/L (≈ 35.3 µM); IC50 (Plasmodium falciparum [14]): 2.97 mg/L (≈ 8.68 µM); IC90 (Plasmodium falciparum [15]): 11.3 mg/L (≈ 33.2 µM)
7 | CCCCCCOC(=O)N/C(=N/C(C)C)NC1=NC(=O)C(=O)N1c1ccc(Cl)c(Cl)c1 |  | 3 |  |  | 2 |  | 2 | Activity (Plasmodium yoelii [16]): 5; Activity (Plasmodium yoelii [17]): 4
8 | CCOC(=O)N/C(=N/C(C)C)NC1=NC(=O)C(=O)N1c1ccc(Cl)c(Cl)c1 |  | 5 | 98 | 10 | 1 |  | 1 | Activity (Plasmodium yoelii [16]): 5; Activity (Plasmodium yoelii [17]): 3
9 | C=CCCOC(=O)/N=C(\NC1=NC(=O)C(=O)N1C(C)C)Nc1ccc(Cl)c(Cl)c1 | 1 | 0 |  |  | 0 |  |  | 
10 | Cc1oc(=O)oc1COC(=O)/N=C(\NC1=NC(=O)C(=O)N1C(C)C)Nc1ccc(Cl)c(Cl)c1 | 3 | 2 |  |  | 2 | 0 |  | 
11 | CCN(CC)CCCC(C)Nc1ccnc2cc(Cl)ccc12 (centres undefined) [CHLOROQUINE] |  |  |  |  |  |  |  | IC90 (Plasmodium falciparum [11]): 0.199 mg/L (≈ 0.621 µM); IC90 (Plasmodium falciparum [13]): 0.00533 mg/L (≈ 0.0167 µM); IC90 (Plasmodium falciparum [15]): 0.0552 mg/L (≈ 0.173 µM)
12 | CC(C)N1C(=O)C(=O)N=C1N/C(=N\C(=O)OC(C)(C)C)Nc1ccc(Cl)c(Cl)c1 | 5 | 2 | 99 | 69 | 0 |  |  | 
13 | CCCCCCOC(=O)/N=C(\NC1=NC(=O)C(=O)N1C(C)C)Nc1ccc(Cl)c(Cl)c1 | 1 | 2 |  |  | 0 |  |  | 
14 | CC(C)N1C(=O)C(=O)N=C1N/C(=N\C(=O)OCCOCc1ccccc1)Nc1ccc(Cl)c(Cl)c1 | 1 | 0 |  |  | 0 |  |  | 
15 | COc1cc(C)c2c(Oc3cccc(C(F)(F)F)c3)c(OC)cc(NC(C)CCCN)c2n1 (centres undefined) [TAFENOQUINE] |  | 5 | 96 | 39 | 5 | 3 | 5 | Activity (Plasmodium yoelii [18]): Toxicity death
16 | O[C@@H](c1cc(C(F)(F)F)nc2c(C(F)(F)F)cccc12)C1CCCCN1 (some centres undefined) [MEFLOQUINE] |  |  |  |  |  |  |  | IC90 (Plasmodium falciparum [11]): 0.00401 mg/L (≈ 0.0106 µM); IC90 (Plasmodium falciparum [13]): 0.0134 mg/L (≈ 0.0355 µM); IC90 (Plasmodium falciparum [15]): 0.044 mg/L (≈ 0.116 µM)
17 | CC(C)COC(=O)/N=C(\NC1=NC(=O)C(=O)N1C(C)C)Nc1ccc(Cl)c(Cl)c1 | 5 | 2 |  |  | 0 |  |  | 
18 | CCO[C@H]1O[C@@H]2O[C@@]3(C)CC[C@H]4[C@H](C)CC[C@@H]([C@H]1C)[C@@]24OO3 [ARTEMOTIL] | 0 | 0 |  |  | 0 |  |  | 
19 | CCOC(=O)/N=C(\NC1=NC(=O)C(=O)N1C(C)C)Nc1ccc(Cl)c(Cl)c1 | 5 | 4 | 99 | 63 | 2 | 0 |  | 
20 | CC(C)/N=C(/NC(=O)OC(C)(C)C)NC1=NC(=O)C(=O)N1c1ccc(Cl)c(Cl)c1 | 5 | 4 |  |  |  | 2 | 4 | Activity (Plasmodium yoelii [19]): 2
